Test results: patent publication US6743917B2, “Camptothecin analogs and methods of preparation thereof” (University of Pittsburgh, priority 1993, dated 2004)
Read-outs that look alike come from different tables or passages of the source.

Assays:
[1] = Equilibrium binding to DMPC small unilamellar vesicles (fluorescence anisotropy titration); details: PBS buffer at PH 7.4 and 37° C.
[2] = Equilibrium binding to DMPG small unilamellar vesicles (fluorescence anisotropy titration); details: PBS buffer at PH 7.4 and 37° C.
[3] = test system: HL-60 (human promyelocytic leukemic) cells; assay: Cytotoxicity assay, HL-60 cells (XTT-microculture tetrazolium assay); assay type: cell-based; details: read-out: Inhibition of cancer cell growth IC50, HL-60
Procedure: The camptothecin derivatives were evaluated for their cytotoxic effects on the growth of HL-60 (human promyelocytic leukemic), 833K (human teratocarcinoma) and DC-3F (hamster lung) cells in vitro. The cells were cultured in an initial density of […]. They were maintained in a 5% CO2 humidified atmosphere at 37° C. in RPMI-1640 media (GIBCO-BRL Grand Island, N.Y.) containing penicillin 100 μ/ml)/streptomycin (100 ^μg/ml) (GIBCO-BRL) and 10% heat inactivated fetal bovine serum. The assay was performed in duplicate in 96-well microplates. The cytotoxicity of the compounds toward HL-60 cells following 72 hr incubation was determined by XTT-microculture tetrazolium assay. Scudiero, D. A., et al., Cancer Res., 48, 4827 (1988), the disclosure of which is incorporated herein by reference. 2′, 3′-bis(-methoxy-4-nitro-5-sulfheny)-5-[(phenylamino)carbonyl]-2H-tetrazolium hydroxide (XTT) was prepared at 1 mg/ml in prewarmed (37° C.) medium without serum. Phenazine methosulfate (PMS) and fresh XTT were mixed together to obtain 0.075 mM PMS-XTT solution (25 ^μl of the stock 5 mM PMS was added per 5 ml of 1 mg/ml XTT). Fifty ^μl of this mixture was added to each well of the cell culture at the end of 72 hr incubation. After incubation at 37° C. for 4 hr., absorbance at 450 nm and 630 nm was measured with a microplate reader (EL340, Bio-Tek Instruments, Inc., Winooski, Vt.).

[4] = test system: DC-3F (hamster lung) cells; assay: Cytotoxicity assay, DC-3F cells (sulforhodamine B protein content); assay type: cell-based; details: read-out: Inhibition of cancer cell growth IC50, DC-3F
Procedure: (§1) Cultures were fixed with trichloroacetic acid and then stained for 30 minutes with 0.4% sulforhodamine B dissolved in 1% acetic acid. Unbound dye was removed by acetic acid washes, and the protein-bound dye was extracted with an unbuffered Tris base [tris(hydroxy-methyl)aminomethan] for determination of absorbance at 570 nm in a 96-well microplate reader. The experiments were carried out in duplicate using five to six concentrations of the drugs tested. Data were analyzed via computer software.

[5] = test system: 833K (human teratocarcinoma) cells; assay: Cytotoxicity assay, 833K cells (sulforhodamine B protein content); assay type: cell-based; details: read-out: Inhibition of cancer cell growth IC50, 833K
Procedure: as §1

[6] = Kinetics of lactone ring opening in PBS buffer (HPLC); assay type: physicochemical; details: PBS
Procedure: Kinetics of Lactone Ring Opening. […] Mi and Burke (1994), supra.
FIG. 21 summarizes the stability of DB172 in phosphate buffered saline (PBS) buffer, pH 7.4, at physiological temperature. Shown in the figure are plots of lactone fraction as a function of time for DB172 at different concentrations. Drug was added to solution from a concentrated DMSO stock solution such that the volumes of DMSO were very small (less than 0.5%) relative to the volume of water. […] At the more dilute drug concentrations the drug hydrolyzes as previously observed for other camptothecins containing the ^α-hydroxy-^δ-lactone moiety.

[7] = Kinetics of lactone ring opening in RBC (HPLC); assay type: in vitro ADME, human; details: RBC
Text: Kinetics of Lactone Ring Opening. […] Mi and Burke (1994), supra. […] Louis, Mo.) was used.

[8] = Kinetics of lactone ring opening in PBS containing HSA (HPLC); details: HSA (PBS containing 30 mg/ml HSA)
[9] = Kinetics of lactone ring opening in whole human blood (HPLC); details: Whole Blood, physiological temperature;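 note: hydrolytic opening of the camptothecin lactone ring followed over time by quantitative C18 reversed-phase HPLC in human whole blood at physiological temperature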
[10] = Homo sapiens, HL-60 cells, 72 hr incubation, XTT
[11] = Mesocricetus auratus, DC3F, DC-3F cells, sulforhodamine B
[12] = Homo sapiens, 833K cells, sulforhodamine B
[13] = HL-60 cells, 72 hr incubation, XTT

Row | Molecule | KDMPC overall association constant [1] [M⁻¹] | KDMPG overall association constant [2] [M⁻¹] | IC50 [3, 10] [nM] | IC50 [4, 11] [nM] | IC50 [5, 12] [nM] | other results
1 | CCC1(O)C(=O)OCc2c1cc1n(c2=O)Cc2c-1nc1ccc(O)cc1c2C (stereo not drawn) [7-methyl-10-hydroxycamptothecin] | 220 | 90 |  |  |  | 
2 | CCC1(O)C(=O)OCc2c1cc1n(c2=O)Cc2c-1nc1ccc(OC(C)=O)cc1c2[Si](C)(C)C (stereo in doubt) [Example 4, (20S)-10-acetoxy-7-trimethylsilylcamptothecin] |  |  | 2.7 | 6.7 |  | 
3 | CCc1c2c(nc3ccc(OC)cc13)-c1cc3c(c(=O)n1C2)COC(=O)C3(O)CC (stereo not drawn) [7-ethyl-10-methoxycamptothecin] | 340 | 330 |  |  |  | 
4 | CCC1(O)C(=O)OCc2c1cc1n(c2=O)Cc2c-1nc1cc(F)c(N)cc1c2[Si](C)(C)C (stereo in doubt) [Example 10, (20S)-11-fluoro-10-amino-7-trimethylsilylcamptothecin] |  |  | 0.07 | 0.29 | 0.14 | 
5 | CC[C@@]1(O)C(=O)OCc2c1cc1n(c2=O)Cc2c-1nc1ccc(O)cc1c2[Si](C)(C)CCCCl [DB-158, (20S)-10-hydroxy-7-(3-chloropropyldimethylsilyl) camptothecin] |  |  |  |  |  | % Lactone at Equilibrium [6]: 11.3 +/− 1.8%; % Lactone at Equilibrium [7]: 50.2 +/− 1.7%; t1/2 [7]: 1.13 ± 0.142 h; % Lactone at Equilibrium [8]: 17.2 +/− 0.7%; t1/2 [8]: 0.8 ± 0.015 h; % Lactone at Equilibrium [9]: 17.8 +/− 2.0%; t1/2 [9]: 1.09 ± 0.15 h
6 | CCC1(O)C(=O)OCc2c1cc1n(c2=O)Cc2c-1nc1ccc(OC(=O)N3CCC(N4CCCCC4)CC3)cc1c2[Si](C)(C)C (stereo in doubt) [Example 6, (20S) 7-trimethylsilyl-irinotecan] |  |  |  |  |  | IC50 ([3]; Homo sapiens, HL-60, 72 h): 66 nM; IC50 ([5]; Homo sapiens, 833K): 214 nM; IC50 ([4]; Mesocricetus auratus, DC3F): 256 nM
7 | CC[C@@]1(O)C(=O)OCc2c1cc1n(c2=O)Cc2c-1nc1ccccc1c2[Si](C)(C)CC1CCC2CC1C2(C)C (stereo partly drawn) [Example 14, (20S)-7-(dimethyl-(1′S,2′S,5′S) 7,7 dimethylnorpinylsilyl)camptothecin] |  |  | 66.9 | 64.1 | 197 | 
8 | (20S)-11,12-difluoro-7-trimethylsilylcamptothecin and (20S)-9,10-difluoro-7-trimethylsilylcamptothecin [Example 11] |  |  |  |  |  | IC50 [3, 13]: 1.01 nM; IC50 ([5]; 833K cells, sulforhodamine B): 2.1 nM; IC50 ([4]; DC-3F cells, sulforhodamine B): 2.5 nM
9 | CC[C@@]1(O)C(=O)OCc2c1cc1n(c2=O)Cc2c-1nc1ccc(O)cc1c2[Si](C)(C)CCCN(C)C.Cl [DB-124, 10-hydroxy-7-(3-dimethylaminopropyldimethylsilyl) camptothecin hydrochloride salt] |  |  |  |  |  | % Lactone at Equilibrium [6]: 8.9 +/− 0.3%; % Lactone at Equilibrium [8]: 12.2 +/− 0.3%; t1/2 [8]: 0.667 ± 0.005 h; % Lactone at Equilibrium [9]: 31.8 +/− 0.8%; t1/2 [9]: 1.05 ± 0.123 h
10 | CCc1c2c(nc3ccccc13)-c1cc3c(c(=O)n1C2)COC(=O)[C@]3(O)CC [7-ethyl-20(S)-camptothecin] | 250 | 300 |  |  |  | 
11 | CC[C@@]1(O)C(=O)OCc2c1cc1n(c2=O)Cc2c-1nc1ccc(OC(C)=O)cc1c2[Si](C)(C)C(C)(C)C [Example 17, (20S)10-acetoxy-7-tert-butyldimethylsilylcamptothecin] |  |  | 1.86 | 3.57 |  | 
12 | CCCc1c2c(nc3ccccc13)-c1cc3c(c(=O)n1C2)COC(=O)[C@]3(O)CC [7-propyl-20(S)-camptothecin] | 540 | 600 |  |  |  | 
13 | CCCc1c2c(nc3ccc(OC)cc13)-c1cc3c(c(=O)n1C2)COC(=O)C3(O)CC (stereo not drawn) [7-propyl-10-methoxycamptothecin] | 440 | 570 |  |  |  | 
14 | CCC1(O)C(=O)OCc2c1cc1n(c2=O)Cc2c-1nc1ccccc1c2[Si](c1ccccc1)(c1ccccc1)C(C)(C)C (stereo in doubt) [Example 3, (20S)-7-tert-butyldiphenylsilylcamptothecin] |  |  | 339 | 663 | 243 | 
15 | CCC1(O)C(=O)OCc2c1cc1n(c2=O)Cc2c-1nc1ccc(OC)cc1c2C (stereo not drawn) [7-methyl-10-methoxycamptothecin] | 220 | 200 |  |  |  | 
16 | CCCCc1c2c(nc3ccc(O)cc13)-c1cc3c(c(=O)n1C2)COC(=O)C3(O)CC (stereo not drawn) [7-butyl-10-hydroxycamptothecin] | 2100 | 1270 |  |  |  | 
17 | CCC1(O)C(=O)OCc2c1cc1n(c2=O)Cc2c-1nc1ccc(O)cc1c2[Si](C)(C)C (stereo in doubt) [Example 5, (20S)-10-hydroxy-7-trimethylsilylcamptothecin] |  |  | 2.6 | 6.9 | 7 | 
18 | CCCc1c2c(nc3ccc(O)cc13)-c1cc3c(c(=O)n1C2)COC(=O)C3(O)CC (stereo not drawn) [7-propyl-10-hydroxycamptothecin] | 550 | 250 |  |  |  | 
19 | CC[C@@]1(O)C(=O)OCc2c1cc1n(c2=O)Cc2c-1nc1ccc(OC(C)=O)cc1c2[Si](C)(C)C(C)(C)C [Example 18, (20S)10-Acetoxy-7-tert-butyldimethylsilylcamptothecin] |  |  |  |  |  | IC50 [3, 13]: 2.6 nM; IC50 ([4]; DC-3F cells, sulforhodamine B): 5.2 nM
20 | CC[C@@]1(O)C(=O)OCc2c1cc1n(c2=O)Cc2c-1nc1ccccc1c2C [7-methyl-20(S)-camptothecin] | 150 | 180 |  |  |  | 
21 | CC[C@@]1(O)C(=O)OCc2c1cc1n(c2=O)Cc2c-1nc1ccccc1c2[Si](C)(C)CCCC#N [Example 15, (20S)-7-(3-cyanopropyldimethylsilyl)camptothecin] |  |  | 0.91 | 2.7 | 2.7 | 
22 | CC[C@@]1(O)C(=O)OCc2c1cc1n(c2=O)Cc2c-1nc1ccccc1c2[Si](C(C)C)(C(C)C)C(C)C [Example 12, 20S-7-triisopropylsilylcamptothecin] |  |  | 1510 | 1040 | 10700 | 
23 | CCC1(O)C(=O)OCc2c1cc1n(c2=O)Cc2c-1nc1cc(N)ccc1c2[Si](C)(C)C (stereo in doubt) [Example 9, (20S)-11-amino-7-trimethylsilylcamptothecin] |  |  | 2.6 | 6.4 | 7.4 | 
24 | CC[C@@]1(O)C(=O)OCc2c1cc1n(c2=O)Cc2c-1nc1ccccc1c2[Si](C)(C)CCCCl [Example 16, (20S)-7-(3-halopropyldimethylsilyl) camptothecin] |  |  | 2.1 | 2.3 | 5.4 | 
25 | CC[C@@]1(O)C(=O)OCc2c1cc1n(c2=O)Cc2c-1nc1ccccc1c2[Si](CC)(CC)CC [Example 13, (20S)-7-Triethylsilylcamptothecin] |  |  | 31.9 | 57.1 | 122 | 
